Experimental data reported in patent US4051237A, “Glycopeptide antibiotics Bu-2231 A and B and process for producing same” (priority 1975, dated 1977).
Values after ≈ are worked out from the molar mass of the structure shown.

Experiments:
[1] = tested on: E. coli NIHJ; experiment: MIC by two-fold agar dilution; assay type: cell-based; settings: Mueller-Hinton agar, unit assumed
[2] = tested on: E. coli K-12 A9632; experiment: MIC by two-fold agar dilution; assay type: cell-based; settings: Mueller-Hinton agar, unit assumed
[3] = tested on: E. coli A20665; experiment: MIC by two-fold agar dilution; assay type: cell-based; settings: Mueller-Hinton agar, unit assumed
[4] = tested on: E. coli A20732; experiment: MIC by two-fold agar dilution; assay type: cell-based; settings: Mueller-Hinton agar, unit assumed
[5] = tested on: K. pneumoniae A20680; experiment: MIC by two-fold agar dilution; assay type: cell-based; settings: Mueller-Hinton agar, unit assumed
[6] = tested on: K. pneumoniae A20328; experiment: MIC by two-fold agar dilution; assay type: cell-based; settings: Mueller-Hinton agar, unit assumed
[7] = tested on: P. vulgaris A9436; experiment: MIC by two-fold agar dilution; assay type: cell-based; settings: Mueller-Hinton agar, unit assumed
[8] = tested on: P. rettgeri A15167; experiment: MIC by two-fold agar dilution; assay type: cell-based; settings: Mueller-Hinton agar, unit assumed
[9] = tested on: S. marcescens A20333; experiment: MIC by two-fold agar dilution; assay type: cell-based; settings: Mueller-Hinton agar, unit assumed
[10] = tested on: S. marcescens A21235; experiment: MIC by two-fold agar dilution; assay type: cell-based; settings: Mueller-Hinton agar, unit assumed
[11] = tested on: P. aeruginosa A 9923; experiment: MIC by two-fold agar dilution; assay type: cell-based; settings: Mueller-Hinton agar, unit assumed
[12] = tested on: P. aeruginosa A9930; experiment: MIC by two-fold agar dilution; assay type: cell-based; settings: Mueller-Hinton agar, unit assumed
[13] = tested on: S. aureus #193; experiment: MIC by two-fold agar dilution; assay type: cell-based; settings: Mueller-Hinton agar, unit assumed
[14] = tested on: S. aureus BX-1633,A9606; experiment: MIC by two-fold agar dilution; assay type: cell-based; settings: Mueller-Hinton agar, unit assumed
[15] = tested on: M. flavus D12; experiment: MIC by two-fold agar dilution; assay type: cell-based; settings: Mueller-Hinton agar, unit assumed
[16] = tested on: B. mycoides "0"; assay type: cell-based; settings: Mueller-Hinton agar, unit assumed
[17] = tested on: B. sphaericus #122; experiment: MIC by two-fold agar dilution; assay type: cell-based; settings: Mueller-Hinton agar, unit assumed
[18] = tested on: B. subtilis PCI-219; experiment: MIC by two-fold agar dilution; assay type: cell-based; settings: Mueller-Hinton agar, unit assumed
[19] = tested on: Mycobacterium 607, D87; experiment: MIC by two-fold agar dilution; assay type: cell-based; settings: Medium #1001, unit assumed
[20] = tested on: Mycobacterium 607, D47; experiment: MIC by two-fold agar dilution; assay type: cell-based; settings: Medium #1001, unit assumed
[21] = tested on: C. albicans IAM 4888; experiment: MIC by two-fold agar dilution; assay type: cell-based; settings: Ca-1 C. albicans IAM 4888; sabouraud agar; unit assumed
[22] = tested on: C. krusei IAM 4489; experiment: MIC by two-fold agar dilution; assay type: cell-based; settings: Ck-1 C. krusei IAM 4489; sabouraud agar; unit assumed
[23] = tested on: C. krusei #96 A15052; experiment: MIC by two-fold agar dilution; assay type: cell-based; settings: Ck-2 C. krusei #96 A15052; sabouraud agar; unit assumed
[24] = tested on: C. neoformans IAM 4514; experiment: MIC by two-fold agar dilution; assay type: cell-based; settings: Cn-2 C. neoformans IAM 4514; sabouraud agar; unit assumed
[25] = tested on: S. cerevisiae ATCC 9763; experiment: MIC by two-fold agar dilution; assay type: cell-based; settings: Sc-1 S. cerevisiae ATCC 9763; sabouraud agar; unit assumed
[26] = tested on: S. cerevisiae IAM 4009; experiment: MIC by two-fold agar dilution; assay type: cell-based; settings: Sc-2 S. cerevisiae IAM 4009; sabouraud agar; unit assumed
[27] = tested on: A. niger var Tieghem; experiment: MIC by two-fold agar dilution; assay type: cell-based; settings: An-1 A. niger var Tieghem; sabouraud agar; unit assumed
[28] = tested on: A. fumigatus IAM 2530; experiment: MIC by two-fold agar dilution; assay type: cell-based; settings: Af-1 A. fumigatus IAM 2530; sabouraud agar; unit assumed
[29] = tested on: Hormodendrum sp.; experiment: MIC by two-fold agar dilution; assay type: cell-based; settings: Hy-1 Hormodendrum sp.; sabouraud agar; unit assumed
[30] = tested on: Sporotrichum sp.; experiment: MIC by two-fold agar dilution; assay type: cell-based; settings: Sy-1 Sporotrichum sp.; sabouraud agar; unit assumed
[31] = tested on: F. moniliforme NRRL A2284; experiment: MIC by two-fold agar dilution; assay type: cell-based; settings: Fm-1 F. moniliforme NRRL A2284; sabouraud agar; unit assumed
[32] = tested on: C. lunata ATCC 13432; experiment: MIC by two-fold agar dilution; assay type: cell-based; settings: Cl-1 C. lunata ATCC 13432; sabouraud agar; unit assumed
[33] = tested on: T. mentagrophytes D-155; experiment: MIC by two-fold agar dilution; assay type: cell-based; settings: Tm-1 T. mentagrophytes D-155; sabouraud agar; unit assumed
[34] = tested on: T. asteroides; experiment: MIC by two-fold agar dilution; assay type: cell-based; settings: Ta-1 T. asteroides; sabouraud agar; unit assumed
[35] = tested on: T. rubrum D-55; experiment: MIC by two-fold agar dilution; assay type: cell-based; settings: Tr-1 T. rubrum D-55; sabouraud agar; unit assumed
[36] = tested on: M. canis D-51; experiment: MIC by two-fold agar dilution; assay type: cell-based; settings: Mc-1 M. canis D-51; sabouraud agar; unit assumed
[37] = tested on: E. coli NIHJ; experiment: In vivo activity in experimental mice infection; settings: Table 12
Experimental: The in vivo activity of Bu-2231 complex was evaluated in experimental mice infections against S. aureus Smith and E. coli NIHJ. Bleomycin was tested comparatively as a reference antibiotic.
The in vivo activty of the individual components of Bu-2231 in each of the copper-free and copper complex forms was also determined in E. coli infection.

SMILES: Cc1c(N)nc([C@H](CC(N)=O)NC[C@H](N)C(N)=O)nc1C(=O)N[C@H](C(=O)N[C@H](C)[C@@H](O)CC(=O)N[C@H](C(=O)NC(O[C@@H]1O[C@@H](C)[C@@H](N)[C@@H](O)[C@H]1O)C(O)c1nc(-c2nc(C(=O)NCCCC(N)CC(=O)NCCCNCCCCN)cs2)cs1)[C@@H](C)O)[C@H](O[C@@H]1O[C@@H](CO)[C@@H](O)[C@H](O)[C@@H]1O[C@H]1O[C@H](CO)[C@@H](O)[C@H](OC(N)=O)[C@@H]1O)c1c[nH]cn1 (stereo partly drawn) [Bu-2231 A Cu-free]
- MIC [1]: 0.025 mg/L (≈ 0.0144 µM)
- MIC [2]: 0.05 mg/L (≈ 0.0289 µM)
- MIC [3]: 0.05 mg/L (≈ 0.0289 µM)
- MIC [4]: 0.05 mg/L (≈ 0.0289 µM)
- MIC [5]: 6.3 mg/L (≈ 3.64 µM)
- MIC [6]: 0.8 mg/L (≈ 0.462 µM)
- MIC [7]: 0.2 mg/L (≈ 0.115 µM)
- MIC [8]: 0.4 mg/L (≈ 0.231 µM)
- MIC [9]: 0.2 mg/L (≈ 0.115 µM)
- MIC [10]: 0.2 mg/L (≈ 0.115 µM)
- MIC [11]: 50 mg/L (≈ 28.9 µM)
- MIC [12]: 0.4 mg/L (≈ 0.231 µM)
- MIC [13]: 0.1 mg/L (≈ 0.0577 µM)
- MIC [14]: 0.2 mg/L (≈ 0.115 µM)
- MIC [15]: 0.2 mg/L (≈ 0.115 µM)
- MIC [16]: 0.2 mg/L (≈ 0.115 µM)
- MIC [17]: < 0.0063 mg/L
- MIC [18]: < 0.0063 mg/L
- MIC [19]: 0.2 mg/L (≈ 0.115 µM)
- MIC [20]: 0.1 mg/L (≈ 0.0577 µM)
- MIC [21]: 0.8 mg/L (≈ 0.462 µM)
- MIC [22]: 0.8 mg/L (≈ 0.462 µM)
- MIC [23]: 0.8 mg/L (≈ 0.462 µM)
- MIC [24]: 0.4 mg/L (≈ 0.231 µM)
- MIC [25]: 0.4 mg/L (≈ 0.231 µM)
- MIC [26]: 0.4 mg/L (≈ 0.231 µM)
- MIC [27]: 0.2 mg/L (≈ 0.115 µM)
- MIC [28]: 0.8 mg/L (≈ 0.462 µM)
- MIC [29]: 0.8 mg/L (≈ 0.462 µM)
- MIC [30]: 3.1 mg/L (≈ 1.79 µM)
- MIC [31]: 0.8 mg/L (≈ 0.462 µM)
- MIC [32]: 0.8 mg/L (≈ 0.462 µM)
- MIC [33]: 12.5 mg/L (≈ 7.22 µM)
- MIC [34]: 3.1 mg/L (≈ 1.79 µM)
- MIC [35]: 3.1 mg/L (≈ 1.79 µM)
- MIC [36]: 3.1 mg/L (≈ 1.79 µM)
- PD50 ([37]; E. coli NIHJ infection, mice, sc): 0.024 mg/kg
- In vivo activity vs. E. coli NIHJ infection (x/5 mice) ([37]; dose (sc) 0.008): 1/5
- In vivo activity vs. E. coli NIHJ infection (x/5 mice) ([37]; dose (sc) 0.03): 3/5
- In vivo activity vs. E. coli NIHJ infection (x/5 mice) ([37]; dose (sc) 0.13): 5/5
- In vivo activity vs. E. coli NIHJ infection (x/5 mice) ([37]; dose (sc) 0.5): 5/5
- In vivo activity vs. E. coli NIHJ infection (x/5 mice) ([37]; dose (sc) 2): 5/5
